Consider two compounds from paper PMC6361841, “Repurposing of Drugs as Novel Influenza Inhibitors From Clinical Gene Expression Infection Signatures” (Frontiers in Immunology, 2019).

The test system of test [1] is influenza A/Lyon/969/09 (H1N1)pdm09 virus. In kind it is cell-based. Conditions: basolateral medium replaced with fresh medium without drugs.
Test [2] deals with A/Lyon/969/2009 H275Y (H1N1). In kind it is cell-based, influenza virus.

For the compound `COc1ccc([C@@H]2Sc3ccccc3N(CCN(C)C)C(=O)[C@@H]2OC(C)=O)cc1` [Diltiazem], in test [1], the “Reversibility of inhibitory and protective properties” value is “progressively reversible”. Besides, the Viral titer in test [2] is listed as 2.8 log TCID50/ml.

As for `CCNCC(O)c1cccc(O)c1` (stereo not drawn) [Etilefrine], the Viral titer in test [2] is 2.8 log TCID50/ml.
